“Also recorded” adds a separate entry of the source.
What was measured:
mouse model of IBS = test: Visceromotor reflex (VMR) response to colorectal distention (CRD) in a mouse model of IBS; type: in vivo; details: graded colorectal distention, KSL-W given intracolonically (FIG. 1), rifaximin FIG. 2
Method: Mouse pups at postnatal day 10 will receive a […] enema infusion with 0.5% acetic acid or saline. The pup will be gently held by hand with head down. A poly-ethylene tubing (PE-10) connected to a 100 ul Hamilton syringe is insert through the rectum into the distal colon about 1.5 cm from the anus. 20 μl of 0.5% acetic acid or saline is infused slowly (about second). The pups are put back with dam and wean at 3 weeks old. The mice are allowed to grow into adulthood (8-12 weeks) when they are ready for test of hypersensitivity (increased pain to graded painful stimulus).
Visceromotor reflex (VMR) and Abdominal Withdrawal Reflex (AWR) response to colorectal distention (CRD) for assessing visceral pain sensitivity. The VMR is a reflex measured using an electromyographic (EMG) recording obtained from the external oblique muscle. […] Then, 30-45 min later, the VMR response to CRD is measured by EMG.
Procedure of electrodes implantation: Under a cocktail of Ketamine/Xylazine (80:8 mg/kg body weight) or 1-2% isoflurane. adult mice undergo surgery to implant abdominal electrodes. The depth of anesthesia will be assessed by pinching the toes for a toe pinch response (negative) every 15 minutes during the surgical procedure. […]
EMG response to CRD: EMG is recorded from two externalized electrodes implanted in the external oblique muscle by using CED 1401 plus and Spike 2 software. […]

oral microorganisms = details: U.S. Pat. Nos. 7,494,980 and 8,778,889; cited from earlier work
[1] = test system: biofilms that mimic supragingival or cariogenic plaque; details: cited from earlier work
[2] = test system: microbial balance in the colon; test: Effect on microbial balance in the colon; type: in vivo; details: FIG. 1 cited
Method: Using a novel comprehensive, high-density DNA microarray (PhyloChip) a phylogenetic analysis of the microbial community of the large bowel was performed. […] Even more striking was the dramatic change in the ratio of Firmicutes relative to Bacteroidetes, where “IBS” animals were enriched more with Bacteroidetes and also contained a different composition of species within this phylum.

pathogenic bacteria = test: Selectivity of the antimicrobial peptide for pathogenic versus beneficial bacteria

| Compound | pain behavior (VMR response to colorectal distention) (mouse model of IBS) | antibacterial activity / inhibition of growth of oral microorganisms (oral microorganisms) | prevention of biofilm formation [1] | microbial balance in the colon [2] | selectivity against pathogenic versus beneficial bacteria (pathogenic bacteria) |
| --- | --- | --- | --- | --- | --- |
| CO[C@H]1/C=C/O[C@@]2(C)Oc3c(C)c(O)c4c(O)c(c5c(nc6cc(C)ccn65)c4c3C2=O)NC(=O)/C(C)=C\C=C\[C@H](C)[C@H](O)[C@@H](C)[C@@H](O)[C@@H](C)[C@H](OC(C)=O)[C@@H]1C [rifaximin, reference compound] | attenuates pain behavior |  |  |  |  |
| NH2-Lys-Lys-Val-Val-Phe-Lys-Val-Lys-Phe-Lys-CO NH2 (H-KKVVFKVKFK-NH2) [KSL, antimicrobial decapeptide] |  | possess a broad range of antibacterial activity; also recorded: inhibiting the growth of various oral microorganisms | effective in preventing the formation of biofilms that mimic supragingival or cariogenic plaque |  |  |
| NH2-Lys-Lys-Val-Val-Phe-Trp-Val-Lys-Phe-Lys-CO NH2 (H-KKVVFWVKFK-NH2) [KSL-W, L-tryptophan analog of KSL; L-lysine at position six replaced with L-tryptophan] | attenuates pain behavior |  |  | resets the microbial balance in the colon | works against pathogenic bacteria but spares beneficial ones; also recorded: selective against pathogenic bacteria but not beneficial bacteria |

From US20240010678A1, “METHOD OF TREATMENT OF IRRITABLE BOWEL SYNDROME” (THE JOHNS HOPKINS UNIVERSITY, priority 2020, published 2024)
